Measured values as given in patent publication US20250263376A1, “(E)-N-CINNAMOYLAMINOALKANOLS WITH MELANOGENESIS INHIBITORY ACTIVITY” (Uniwersytet Jagiellonski, priority 2024, published 2025).

Columns and labels:
neuroblastoma SH-SY5Y [1] = test: Safety, LDH test in SH-SY5Y; type: cell-based; conditions: 48 hours, vs Triton X-100
Protocol: (§1) In order to test the safety of the compounds, both normal human cells were used: keratinocytes (HaCaT), fibroblasts (BJ), primary melanocytes that occur in the skin, as well as human cancer cells: the hepatocarcinoma line HepG2 and the neuroblastoma line SH-SY5Y, which are considered a model for the assessment of hepatocytotoxicity and neurocytotoxicity. The concentrations of the tested compounds in the range of […] were used in the studies. The cell lines used in the research were purchased from the American Type Culture Collection (ATCC) and were cultured in media recommended by the manufacturer with the addition of FBS and antibiotics in an incubator ensuring appropriate culture conditions, i.e. humidity, temperature and CO2 concentration. Cells were seeded into multiwell plates and incubated with the test compounds for 48 hours. After this time, MTT and LDH tests were performed to assess cell viability. The MTT test is based on the ability to transform the substrate: [3-(4,5-dimethyl-2-thiazolyl)-2,5-diphenyl-2H-tetrazolium bromide into a colored product only by living cells. The absorbance at 570 nm, which corresponds to the absorption maximum for the product, is directly proportional to cell viability. The LDH test is based on testing the activity of the enzyme lactate dehydrogenase in the culture medium, which is released from cells as a result of damage to the cell membrane, e.g. as a result of cell death. Triton X-100 was used as a positive control in the test. The determination is colorimetric, the substrate is transformed by the released enzyme into a colored product, an increase in absorbance indicates a larger amount of the released enzyme, and thus confirms greater damage to cell membranes. Tables 7 and 8 present the results obtained, which correspond to the viability of cells incubated with the compounds in relation to the viability of cells constituting a control sample, i.e. incubated with the solvent (DMSO) at the same concentration as in the case of the groups tested in the MTT test or in relation to the results obtained for the Triton X-100 positive control in the LDH test. They indicate that the compounds are safe at the concentrations tested.

fibroblasts (BJ) = test: Safety, LDH test in fibroblasts; type: cell-based; conditions: 48 hours, vs Triton X-100
Protocol: as §1

keratinocytes (HaCaT) = test: Safety, LDH test in keratinocytes; type: cell-based; conditions: 48 hours, vs Triton X-100
Protocol: as §1

primary melanocytes = test: Safety, MTT test in primary melanocytes; type: cell-based; conditions: 48 hours
Protocol: as §1

neuroblastoma SH-SY5Y [2] = test: Safety, MTT test in SH-SY5Y; type: cell-based; conditions: 48 hours
Protocol: as §1

hepatocarcinoma HepG2 = test: Safety, MTT test in HepG2; type: cell-based; conditions: 48 hours
Protocol: as §1

CHO-K1 cells = test: Cytotoxicity (MTT) in CHO-K1 cells before the micronucleus test; type: cell-based, Chinese hamster; conditions: 24 hours
Protocol: The assay was performed using a Chinese hamster ovary cell line (CHO-K1) purchased from the American Type Culture Collection (ATCC). The cells were cultured in F-12K medium with the addition of 10% fetal bovine serum (FBS) and antibiotics (streptomycin/penicillin) in an incubator at 37° C. and 5% CO2 concentration). Before the actual micronucleus test, a cytotoxicity assessment was performed to ensure that the actual test was performed only at safe concentrations. For this purpose, cells were transferred to 96-well plates and incubated with the tested compounds for 24 hours. After this time, the MTT test was performed and cell viability was assessed in comparison to the control group (cells cultured with DMSO at the same concentration as in the case of the tested samples).

Structure (SMILES) | LDH, Neuroblastoma SH-SY5Y (neuroblastoma SH-SY5Y [1]; 100 μM) | LDH, Neuroblastoma SH-SY5Y (neuroblastoma SH-SY5Y [1]; 150 μM) | LDH, Neuroblastoma SH-SY5Y (neuroblastoma SH-SY5Y [1]; 200 μM) | LDH, Neuroblastoma SH-SY5Y (neuroblastoma SH-SY5Y [1]; 250 μM) | LDH, Fibroblasts (BJ) (fibroblasts (BJ); 100 μM) | LDH, Fibroblasts (BJ) (fibroblasts (BJ); 150 μM) | LDH, Fibroblasts (BJ) (fibroblasts (BJ); 200 μM) | LDH, Fibroblasts (BJ) (fibroblasts (BJ); 250 μM) | LDH, Keratinocytes (HaCaT) (keratinocytes (HaCaT); 100 μM) | LDH, Keratinocytes (HaCaT) (keratinocytes (HaCaT); 150 μM) | LDH, Keratinocytes (HaCaT) (keratinocytes (HaCaT); 200 μM) | LDH, Keratinocytes (HaCaT) (keratinocytes (HaCaT); 250 μM) | MTT, Primary melanocytes (primary melanocytes; 100 μM) | MTT, Primary melanocytes (primary melanocytes; 150 μM) | MTT, Primary melanocytes (primary melanocytes; 200 μM) | MTT, Primary melanocytes (primary melanocytes; 250 μM) | MTT, Neuroblastoma SH-SY5Y (neuroblastoma SH-SY5Y [2]; 100 μM) | MTT, Neuroblastoma SH-SY5Y (neuroblastoma SH-SY5Y [2]; 150 μM) | MTT, Neuroblastoma SH-SY5Y (neuroblastoma SH-SY5Y [2]; 200 μM) | MTT, Neuroblastoma SH-SY5Y (neuroblastoma SH-SY5Y [2]; 250 μM) | other results
O=C(/C=C/c1ccc(Cl)cc1)NCCCO [H-330/21, (2E)-3-(4-chlorophenyl)-N-(3-hydroxypropyl)prop-2-enamide] | 6.19 percentage of positive control | 4.90 percentage of positive control | 8.35 percentage of positive control | 13.41 percentage of positive control | 4.74 percentage of positive control | 6.50 percentage of positive control | 14.25 percentage of positive control | 28.74 percentage of positive control | 3.66 percentage of positive control | 5.33 percentage of positive control | 17.03 percentage of positive control | 24.24 percentage of positive control | 101.42 ± 2.21 % of solvent control | 97.02 ± 4.49 % of solvent control | 93.78 ± 2.29 % of solvent control | 90.27 ± 2.25 % of solvent control | 99.79 ± 5.34 % of solvent control | 99.86 ± 3.76 % of solvent control | 99.79 ± 3.97 % of solvent control | 99.11 ± 3.66 % of solvent control | MTT, Hepatocarcinoma HepG2 (hepatocarcinoma HepG2; 100 μM): 100.73 ± 4.51 % of solvent control; MTT, Hepatocarcinoma HepG2 (hepatocarcinoma HepG2; 150 μM): 100.44 ± 3.93 % of solvent control; MTT, Hepatocarcinoma HepG2 (hepatocarcinoma HepG2; 200 μM): 100.86 ± 6.41 % of solvent control; MTT, Hepatocarcinoma HepG2 (hepatocarcinoma HepG2; 250 μM): 93.16 ± 1.71 % of solvent control
Cc1ccc(/C=C/C(=O)NCCCCCO)cc1 [H-415/21, (2E)-N-(5-hydroxypentyl)-3-(4-methylphenyl)prop-2-enamide] | 3.90 percentage of positive control | 7.24 percentage of positive control | 8.92 percentage of positive control | 10.55 percentage of positive control | 8.81 percentage of positive control | 8.75 percentage of positive control | 9.82 percentage of positive control | 16.63 percentage of positive control | 2.95 percentage of positive control | 6.70 percentage of positive control | 10.18 percentage of positive control | 18.19 percentage of positive control | 103.27 ± 1.88 % of solvent control | 99.89 ± 2.43 % of solvent control | 94.81 ± 2.92 % of solvent control | 87.64 ± 1.44 % of solvent control | 100.68 ± 4.63 % of solvent control | 99.32 ± 2.96 % of solvent control | 100.27 ± 3.50 % of solvent control | 101.71 ± 2.38 % of solvent control | % Viability [mean], CHO-K1 (CHO-K1 cells; 100 μM): 102.2%; % Viability [mean], CHO-K1 (CHO-K1 cells; 150 μM): 102.8%; % Viability [mean], CHO-K1 (CHO-K1 cells; 200 μM): 87.2%; MTT, Hepatocarcinoma HepG2 (hepatocarcinoma HepG2; 100 μM): 100.32 ± 1.75 % of solvent control; MTT, Hepatocarcinoma HepG2 (hepatocarcinoma HepG2; 150 μM): 99.54 ± 5.74 % of solvent control; MTT, Hepatocarcinoma HepG2 (hepatocarcinoma HepG2; 200 μM): 100.53 ± 3.98 % of solvent control; MTT, Hepatocarcinoma HepG2 (hepatocarcinoma HepG2; 250 μM): 98.90 ± 4.21 % of solvent control
O=C(/C=C/c1ccc(Cl)cc1)NCCO [H-427/21, (2E)-3-(4-chlorophenyl)-N-(2-hydroxyethyl)prop-2-enamide] | 3.09 percentage of positive control | 4.45 percentage of positive control | 5.98 percentage of positive control | 8.87 percentage of positive control | 2.75 percentage of positive control | 5.92 percentage of positive control | 9.00 percentage of positive control | 17.32 percentage of positive control | 2.76 percentage of positive control | 3.69 percentage of positive control | 6.50 percentage of positive control | 17.79 percentage of positive control | 102.20 ± 2.24 % of solvent control | 100.57 ± 2.18 % of solvent control | 93.78 ± 2.18 % of solvent control | 85.19 ± 2.03 % of solvent control | 100.48 ± 3.67 % of solvent control | 100.96 ± 2.72 % of solvent control | 101.30 ± 2.94 % of solvent control | 102.60 ± 9.66 % of solvent control | MTT, Hepatocarcinoma HepG2 (hepatocarcinoma HepG2; 100 μM): 99.61 ± 4.37 % of solvent control; MTT, Hepatocarcinoma HepG2 (hepatocarcinoma HepG2; 150 μM): 98.44 ± 3.94 % of solvent control; MTT, Hepatocarcinoma HepG2 (hepatocarcinoma HepG2; 200 μM): 97.07 ± 4.00 % of solvent control; MTT, Hepatocarcinoma HepG2 (hepatocarcinoma HepG2; 250 μM): 100.08 ± 10.58 % of solvent control
